Test results as given in patent publication US11433111B2 (priority 2019, dated 2022).

System: scopolamine induced memory impairment in male Swiss albino mice
Experiment: Passive avoidance test, scopolamine induced memory impairment
Conditions: 5 mg/kg p.o.; scopolamine 1 mg/kg i.p.; mean ± SEM of six mice
Text: The rectangular larger compartment has 50 cm×50 cm grid floor and wooden walls of 35 cm height. The box was illuminated with a 100-W bulb placed 150 cm above the center. It has a roof, which can be opened or closed. One of the walls has a 6 cm×6 cm opening which to a dark smaller compartment having dimensions of 15 cm×15 cm. This compartment is provided with an electrifiable grid, which is connected to a constant current stimulator, and a ceiling that can be opened or closed. The connection between the two compartments can be closed with a sliding door made of transparent Plexiglas. […] The experiment was divided into three parts: An exploration test, Learning (Electric shock), and Retention testing.
The exploration test is done in three trials. During this, mice are placed in the center of the larger compartment facing away from the entrance to the dark compartment. The door between the two compartments is kept open. The mice are allowed to explore the apparatus (both larger and smaller compartments) for 3 minutes. In each trial, two things will be examined: Time taken by the mice to enter the dark compartment at each trial; and the total time spent by the animal in the dark compartment, using a stop-watch.
After the last exploration trial, the mice are placed in the larger compartment as done in the trial sessions. […]

Structure (SMILES): COc1cc2c(cc1OC)C(=O)C(CC1CCN(Cc3ccccc3)CC1)C2 (stereo not shown) [Donepezil]
- No. of crossings: 1.17 ± 0.17
